Test results from patent US8314123B2, “5, 6, or 7-substituted -3-(hetero) arylisoquinolinamine derivatives and therapeutic use thereof” (Rexahn Pharmaceuticals, Inc., priority 2006, dated 2012).

Columns and labels:
Format in all cases: cell-based
PC3 (prostate) = test: In vitro cell proliferation assay (SRB), PC3; settings: Homo sapiens; SRB method, 96 hours; read-out: Inhibition of cell growth (IC50, μM) PC3
Protocol: (§1) Cancer cell lines to determine the effect of 5, 6, or 7-substituted-3-(hetero)arylisoquinolinamine compounds were obtained from the following sources: Human MDA-MB-231 (breast), PC3 (prostate), HCT-15 (colon), HCT116 (colon), OVCAR-3 (ovary), Caki-1 (kidney), PANC-1 (pancreas), SNB-19 (glioblastoma) and SK-MEL-28 (melanoma) from the American Type Culture Collection (ATCC) (Manassas, Va.). PC3, OVCAR-3, SK-MEL-28 and SNB-19 were grown in RPMI1640 medium (Invitrogen, Carlsbad, Calif.) supplemented with 10% fetal bovine serum (“FBS”), 1 mM sodium pyruvate, 10 mM HEPES and 100 U/ml penicillin and 100 μg/ml streptomycin (“P/S”). MDA-MB-231, Caki-1, HCT-15 (colon) and PANC-1 cells were maintained in Dulbecco's modified Eagle's medium (“DMEM”, Invitrogen) supplemented with 10% FBS, P/S and 10 mM HEPES. HCT116 cells were maintained in DMEM supplemented with 10% FBS, P/S and 10 mM HEPES for in vitro cell proliferation assay and in RPMI1640 medium supplemented with 10% FBS, 1 mM sodium pyruvate, 10 mM HEPES and P/S for in vitro cell cycle analysis. All cells were incubated at 37° C. under humidified 5% CO2.
(§2) The growth inhibition of the 5, 6, or 7-substituted-3-(hetero)arylisoquinolinamine derivatives against a variety of human tumor cells was evaluated to study the relative importance of particular substituent groups on the compounds. The 5, 6, or 7-substituted-3-(hetero)arylisoquinolinamine derivatives, prepared as described above, were tested with DMSO as a control.
(§3) The growth inhibition assay of representative 5, 6, or 7-substituted-3-(hetero)arylisoquinolinamine derivatives against human tumor cell lines was performed using the Sulforhodamine B (“SRB”) method (Skehan et al., J. National Cancer Institute, 82: 1107-1112 (1990)). Briefly, exponentially growing tumor cells were seeded into a 96-well plate at a density of 2-3×10^3 cells/well and treated with 5, 6, or 7-substituted-3-(hetero)arylisoquinolinamine compounds the next day. Triplicate wells were used for each treatment. The cells were incubated with the various compounds for 96 hours at 37° C. in a humidified 5% CO2 atmosphere. After 96-hour incubation, cells were fixed with 10% trichloroacetic acid (“TCA”), incubated for 1 hour at 4° C., and washed 3 times with tap water. Subsequently, cells were stained with 0.4% sulforhodamine B in 1% acetic acid for 30 minutes, washed 4 times with 1% acetic acid, and air-dried again. After 5 minutes agitation in 10 mM Tris solution, the absorbance of each well was measured at 530 nm using Benchmark Plus Microplate reader (Bio-Rad Laboratories, Hercules, Calif.).
(§4) To translate the OD530 values into the number of live cells in each well, the OD530 values were compared to those on standard OD530-versus-cell number curves generated for each cell line. The percent survival was calculated using the formula: % Survival=live cell number [test]/live cell number [control]×100
(§5) The IC50 values were calculated by non-linear regression analysis.

PANC-1 (pancreas) = test: In vitro cell proliferation assay (SRB), PANC-1; settings: Homo sapiens, SRB method, 96 hours, read-out: Inhibition of cell growth (IC50, μM) PANC-1
Protocol: as §1, §2, §3, §4, §5

HCT116 (colon) = test: In vitro cell proliferation assay (SRB), HCT116; settings: Homo sapiens, HCT-116; SRB method, 96 hours; Table 3; read-out: Inhibition of cell growth (IC50, μM) HCT116
Protocol: as §1, §2, §3, §4, §5

Caki-1 (kidney) = test: In vitro cell proliferation assay (SRB), Caki-1; settings: Homo sapiens, SRB method, 96 hours, read-out: Inhibition of cell growth (IC50, μM) Caki-1
Protocol: as §1, §2, §3, §4, §5

MDA-MB-231 (breast) = test: In vitro cell proliferation assay (SRB), MDA-MB-231; settings: Homo sapiens, SRB method, 96 hours, read-out: Inhibition of cell growth (IC50, μM) MDA-MB-231
Protocol: as §1, §2, §3, §4, §5

OVCAR-3 (ovary) = test: In vitro cell proliferation assay (SRB), OVCAR3; settings: Homo sapiens, SRB method, 96 hours, read-out: Inhibition of cell growth (IC50, μM) OVCAR3
Protocol: as §1, §2, §3, §4, §5

SNB-19 (glioblastoma) = test: In vitro cell proliferation assay (SRB), SNB19; settings: Homo sapiens, SRB method, 96 hours, read-out: Inhibition of cell growth (IC50, μM) SNB19
Protocol: as §1, §2, §3, §4, §5

SK-MEL-28 (melanoma) = test: In vitro cell proliferation assay (SRB), SK-MEL-28; settings: Homo sapiens, SRB method, 96 hours, read-out: Inhibition of cell growth (IC50, μM) SK-MEL-28
Protocol: as §1, §2, §3, §4, §5

SMILES	IC50 (PC3 (prostate)) [µM]	IC50 (PANC-1 (pancreas)) [µM]	IC50 (HCT116 (colon)) [µM]	IC50 (Caki-1 (kidney)) [µM]	IC50 (MDA-MB-231 (breast)) [µM]	IC50 (OVCAR-3 (ovary)) [µM]	IC50 (SNB-19 (glioblastoma)) [µM]	IC50 (SK-MEL-28 (melanoma)) [µM]
COc1ccc2c(N)nc(-c3ccccc3)cc2c1 [Compound 11, 6-methoxy-3-phenylisoquinolin-1-amine]	0.77	0.65	0.45	0.47	0.34	0.27	0.63	0.46
COc1ccccc1-c1cc2cc(C)ccc2c(N)n1 [Compound 24, 3-(2-Methoxyphenyl)-6-methylisoquinolin-1-amine]	> 3	0.93	0.67	0.35	0.44	0.49	1.13	0.8
COc1ccc(-c2cc3cc(C)ccc3c(N)n2)cc1 [Compound 26, 3-(4-Methoxyphenyl)-6-methylisoquinolin-1-amine]	2.98	2.27	1.36	0.75	0.93	0.79	2.23	1.8
COc1ccc(-c2cc3cc(C)ccc3c(N)n2)cc1OC [Compound 27, 3-(3,4-Dimethoxyphenyl)-6-methylisoquinolin-1-amine]	2.69	1.75	0.85	0.51	0.66	0.57	2.15	1.41
COc1cc(OC)cc(-c2cc3cc(C)ccc3c(N)n2)c1 [Compound 30, 3-(3,5-Dimethoxyphenyl)-6-methylisoquinolin-1-amine]	0.43	0.38	0.24	0.16	0.18	0.18	0.47	0.41
Cc1ccc2c(N)nc(-c3ccccc3F)cc2c1 [Compound 33, 3-(2-Fluorophenyl)-6-methylisoquinolin-1-amine]	1.84	1.59	0.7	0.46	0.55	0.57	1.51	1.07
Cc1cccc(-c2cc3cc(C)ccc3c(N)n2)c1 [Compound 35, 6-Methyl-3-m-tolylisoquinolin-1-amine]	1.19	1.28	0.59	0.69	0.57	0.47	0.75	0.72
COc1ccccc1-c1cc2ccc(C)cc2c(N)n1 [Compound 37, 3-(2-Methoxyphenyl)-7-methylisoquinolin-1-amine]	1.01	0.68	0.47	0.22	0.32	0.51	0.78	0.67
COc1cccc(-c2cc3ccc(C)cc3c(N)n2)c1 [Compound 38, 3-(3-Methoxyphenyl)-7-methylisoquinolin-1-amine]	0.42	0.47	0.21	0.14	0.17	0.24	0.48	0.41
Cc1ccc2cc(-c3ccccc3F)nc(N)c2c1 [Compound 41, 3-(2-Fluorophenyl)-7-methylisoquinolin-1-amine]	2.76	2.14	1.22	0.59	0.72	0.91	2.2	1.62
Cc1cccc(-c2cc3ccc(C)cc3c(N)n2)c1 [Compound 49, 7-Methyl-3-m-tolylisoquinolin-1-amine]	0.71	0.69	0.28	0.44	0.21	0.29	0.53	0.5
COc1cc2cc(-c3ccccc3)nc(N)c2cc1OC [Compound 51, 6,7-Dimethoxy-3-phenylisoquinolin-1-amine]	0.58	0.67	0.52	0.59	0.44	0.27	0.71	0.75
COc1cc2cc(-c3c(C)cccc3C)nc(N)c2cc1OC [Compound 53, 6,7-Dimethoxy-3-(2,6-dimethylphenyl)isoquinolin-1-amine]	0.68	0.54	0.79	0.53	0.25	0.16	0.42	0.63
COc1cc2cc(-c3cccc(C)c3)nc(N)c2cc1OC [Compound 54, 6,7-Dimethoxy-3-m-tolylisoquinolin-1-amine]	2.5	2.27	2.32	1.78	0.79	0.58	1.56	1.12
COc1cc(OC)cc(-c2cc3cc(OC)c(OC)cc3c(N)n2)c1 [Compound 55, 6,7-Dimethoxy-3-(3,5-dimethoxyphenyl)isoquinolin-1-amine]	0.72	0.7	0.77	0.54	0.4	0.19	0.4	0.69
COc1cc2cc(-c3ccccc3C)nc(N)c2cc1OC [Compound 56, 6,7-Dimethoxy-3-o-tolylisoquinolin-1-amine]	1.25	0.83	0.78	0.67	0.54	0.38	0.56	0.91
